Biological target: T1, KRAS 4B G12C protein (Homo sapiens, UniProt P01116, G12C)
T1 construct: This protein contained 188 amino acids in total, including an N-terminal 6-Histidine tag; made in house; host or cells: E. coli BL21
Assay: In vitro covalent adduct formation (CAF) assay by LC-MS
Assay type: binding
Conditions: compound 10 μM, protein 5 μM, 22° C., percentage of protein bound by the compound
Procedure: In vitro covalent adduct formation assay: Covalent adduct formation (CAF) reactions between Cys12 of the KRAS 4B G12C protein and some of the compounds of Table 1 were measured in vitro using liquid chromatography-mass spectrometry (LC-MS).
Recombinant Human KRAS 4B protein containing the G12C mutation was used in compound screening experiments. This protein contained 188 amino acids in total, including an N-terminal 6-Histidine tag, followed by a Tobacco Etch Virus (TEV) tag, followed by residues 1-169 of the native KRAS 4B sequence. The exact mass of the protein was 21,310 Da as determined by mass spectrometry. The full amino acid sequence is shown below:
The recombinant protein was expressed in E. coli BL21 cells and purified using affinity chromatography via a Ni-NTA column. […] Pure KRAS 4B G12C protein was diluted to a concentration of 5 μM in Tris Buffered Saline, pH 7.4. The compounds were dissolved in DMSO and added to the diluted protein to make a 10 μM concentration. The total DMSO concentration in the reaction was 4%. The reaction was mixed by pipetting and incubated at 22° C. for one hour. Aliquots of the reaction were taken over time and diluted 2:1 in 0.1% formic acid. The intact mass of the protein samples was measured by LC-MS using a QExactive+ mass spectrometer (Thermo Scientific). An amount of 500 ng total protein was injected onto a C8 reverse phase column, eluted with a seven-minute gradient of 30%-90% acetonitrile/0.1% formic acid, and analyzed for intact mass by the mass spectrometer. Adducts identified were confirmed to be within 1 Dalton of the expected mass, and the relative ratios of free:adduct protein were used to quantify the percentage of protein bound by the compound. CAF reactions were run in duplicate, with a typical variability of ±5%.

SMILES | CAF (10 minutes/60 minutes) at 10 micromolar: 10 minutes | CAF (10 minutes/60 minutes) at 10 micromolar: 60 minutes
C=CC(=O)N1CCN(c2nc(OC[C@@H]3CCCN3C)nc3c2CN(Cc2cc(O)ccc2C)C3)[C@@H](C)C1 [1-1, 1-[(3S)-4-{6-[(5-hydroxy-2-methylphenyl)methyl]-2-{[(2S)-1-methylpyrrolidin-2-yl]methoxy}-5H,7H-pyrrolo[3,4-d]pyrimidin-4-yl}-3-methylpiperazin-1-yl]prop-2-en-1-one] | 69% | 93%
C=CC(=O)N1CCN(c2nc(OC[C@@H]3CCCN3C)nc3c2CN(Cc2cc(OC)ccc2C)C3)[C@@H](C)C1 [1-2] | 0% | 4%
C=CC(=O)N1CCN(c2nc(OC[C@@H]3CCCN3C)nc3c2CN(Cc2c(C)cccc2C)C3)[C@@H](C)C1 [1-3] | 6% | 33%
C=CC(=O)N1CCN(c2nc(OC[C@@H]3CCCN3C)nc3c2CN(Cc2cc(OC)ccc2C)C3)C[C@@H]1CC#N [1-6] | 65% | 93%
C=CC(=O)N1CCN(c2nc(OC[C@@H]3CCCN3C)nc3c2CN(Cc2c(O)cccc2F)C3)C[C@@H]1CC#N [1-7, 2-((S)-1-acryloyl-4-(6-(2-fluoro-6-hydroxybenzyl)-2-(((S)-1-methylpyrrolidin-2-yl)methoxy)-6,7-dihydro-5H-pyrrolo[3,4-d]pyrimidin-4-yl)piperazin-2-yl)acetonitrile] | 96% | 97%
C=CC(=O)N1CCN(c2nc(OC[C@@H]3CCCN3C)nc3c2CN(Cc2cc(C(F)(F)F)ccc2C)C3)C[C@@H]1CC#N [1-8] | 20% | 62%
C=CC(=O)N1CCN(c2nc(OC[C@@H]3CCCN3C)nc3c2CN(c2cccc4ccccc24)C3)C[C@@H]1CC#N [1-9, 2-[(2S)-4-(2-{[(2S)-1-methylpyrrolidin-2-yl]methoxy}-6-(naphthalen-1-yl)-5H,7H-pyrrolo[3,4-d]pyrimidin-4-yl)-1-(prop-2-enoyl)piperazin-2-yl]acetonitrile] | 35% | 85%
C=CC(=O)N1CCN(c2nc(OC[C@@H]3CCCN3C)nc3c2CN(Cc2cc(F)ccc2C)C3)C[C@@H]1CC#N [1-11] | 87% | 98%
C=CC(=O)N1CCN(c2nc(OC[C@@H]3CCCN3C)nc3c2CN(Cc2cc(F)cc(F)c2)C3)C[C@@H]1CC#N [1-12] | 28% | 74%
C=CC(=O)N1CCN(c2nc(OC[C@@H]3CCCN3C)nc3c2CN(Cc2cc(F)cc(F)c2)C3)[C@@H](C)C1 [1-13] | 0%/ 0% | 0%/ 0%
C=CC(=O)N1CCN(c2nc(OC[C@@H]3CCCN3C)nc3c2CN(Cc2c(F)cccc2F)C3)[C@@H](C)C1 [1-14] | 0% | 8%
C=CC(=O)N1CCN(c2nc(OC[C@@H]3CCCN3C)nc3c2CN(Cc2cc(C(F)(F)F)ccc2C)C3)[C@@H](C)C1 [1-15] | 0%/ 0% | 0%/ 0%
C=CC(=O)N1CCN(c2nc(OC[C@@H]3CCCN3C)nc3c2CN(Cc2cccc4cccc(C)c24)C3)C[C@@H]1CC#N [1-16] | 40% | 86%
C=CC(=O)N1CCN(c2nc(OC[C@@H]3CCCN3C)nc3c2CN(c2cccc4cccc(C)c24)C3)C[C@@H]1CC#N [1-17, 2-((S)-1-acryloyl-4-(6-(8-methylnaphthalen-1-yl)-2-(((S)-1-methylpyrrolidin-2-yl)methoxy)-6,7-dihydro-5H-pyrrolo[3,4-d]pyrimidin-4-yl)piperazin-2-yl)acetonitrile] | 90% | 99%
C=CC(=O)N1C[C@H](C)N(c2nc(OC[C@@H]3CCCN3C)nc3c2CN(Cc2cc(O)ccc2C)C3)C[C@H]1C [1-18] | 21% | 65%
C=CC(=O)N1CCN(c2nc(OC[C@@H]3CCCN3C)nc3c2CN(Cc2cc(F)ccc2C)C3)[C@@H](C)C1 [1-20] | 0% | 6%
C=CC(=O)N1C[C@H](C)N(c2nc(OC[C@@H]3CCCN3C)nc3c2CN(Cc2c(C)ccc(O)c2C)C3)C[C@H]1C [1-21] | 20% | 63%
C=CC(=O)N1C[C@H](C)N(c2nc(OC[C@@H]3CCCN3C)nc3c2CN(Cc2c(C)ccc4[nH]ncc24)C3)C[C@H]1C [1-22] | 1% | 15%
C=CC(=O)N1CCN(c2nc(OC[C@@H]3CCCN3C)nc3c2CN(C(=O)c2cc(O)ccc2C)C3)[C@@H](C)C1 [1-23, 1-((S)-4-(6-(5-hydroxy-2-methylbenzoyl)-2-(((S)-1-methylpyrrolidin-2-yl)methoxy)-6,7-dihydro-5H-pyrrolo[3,4-d]pyrimidin-4-yl)-3-methylpiperazin-1-yl)prop-2-en-1-one] | 9% | 35%
C=CC(=O)N1CCN(c2nc(OC[C@@H]3CCCN3C)nc3c2CN(C(=O)c2cccc(C(F)F)c2)C3)[C@@H](C)C1 [1-24] | 0%/ 0% | 0%/ 0%
C=CC(=O)N1CCN(c2nc(OC[C@@H]3CCCN3C)nc3c2CN(Cc2cc(F)ccc2Cl)C3)C[C@@H]1CC#N [1-25] | 78% | 93%

Further lines, results first:

CAF (10 minutes/60 minutes) at 10 micromolar: 10 minutes | CAF (10 minutes/60 minutes) at 10 micromolar: 60 minutes | SMILES
74%/ 74% | 74%/ 74% | C=CC(=O)N1CCN(c2nc(OC[C@@H]3CCCN3C)nc3c2CN(Cc2cc(O)ccc2Cl)C3)C[C@@H]1CC#N [1-26, 2-((S)-1-acryloyl-4-(6-(2-chloro-5-hydroxybenzyl)-2-(((S)-1-methylpyrrolidin-2-yl)methoxy)-6,7-dihydro-5H-pyrrolo[3,4-d]pyrimidin-4-yl)piperazin-2-yl)acetonitrile]
68% | 97% | C=CC(=O)N1CCN(c2nc(OC[C@@H]3CCCN3C)nc3c2CN(Cc2cc(F)ccc2F)C3)C[C@@H]1CC#N [1-27]
94% | 98% | C=CC(=O)N1CCN(c2nc(OC[C@@H]3CCCN3C)nc3c2CN(Cc2cc(Cl)ccc2Cl)C3)C[C@@H]1CC#N [1-28]
98% | 99% | C=CC(=O)N1CCN(c2nc(OC[C@@H]3CCCN3C)nc3c2CN(Cc2c(C)cccc2C)C3)C[C@@H]1CC#N [1-29]
0% | 7% | C=CC(=O)N1CCN(c2nc(OC[C@@H]3CCCN3C)nc3c2CN(Cc2cc(Cl)ccc2C)C3)[C@@H](C)C1 [1-30]
0% | 6% | C=CC(=O)N1CCN(c2nc(OC[C@@H]3CCCN3C)nc3c2CN(c2cccc4cccc(C)c24)C3)[C@@H](C)C1 [1-31]
7% | 41% | C=CC(=O)N1C[C@H](C)N(c2nc(OC[C@@H]3CCCN3C)nc3c2CN(Cc2cc(O)ccc2F)C3)C[C@H]1C [1-32]
0% | 5% | C=CC(=O)N1CCN(c2nc(OC[C@@H]3CCCN3C)nc3c2CN(Cc2cc(Cl)ccc2F)C3)[C@@H](C)C1 [1-33]
0% | 14% | C=CC(=O)N1CCN(c2nc(OC[C@@H]3CCCN3C)nc3c2CN(Cc2cc(F)ccc2Cl)C3)[C@@H](C)C1 [1-34]
56% | 91% | C=CC(=O)N1CCN(c2nc(OC[C@@H]3CCCN3C)nc3c2CN(Cc2cccc(F)c2)C3)C[C@@H]1CC#N [1-35]
91% | 97% | C=CC(=O)N1CCN(c2nc(OC[C@@H]3CCCN3C)nc3c2CN(Cc2c(F)cccc2OC)C3)C[C@@H]1CC#N [1-36]
0%/ 0% | 0%/ 0% | C=CC(=O)N1CCN(c2nnc(OC)c3c2CN(Cc2cc(O)ccc2C)C3)[C@@H](C)C1 [1-37]
97%/ 97% | 97%/ 97% | C=CC(=O)N1CCN(c2nc(OC[C@@H]3CCCN3C)nc3c2CN(Cc2c(Cl)cccc2OC)C3)C[C@@H]1CC#N [1-38]
